Literature values, collected in PMC9184463, “Structural basis of ligand binding modes of human EAAT2” (Nature Communications, 2022).

Test system: ionotropic and metabotropic glutamate receptors
Conditions: sentence of earlier manuscript version quoted by reviewer; no reference given; cited from earlier work

NC(CC(=O)Nc1ccc(Oc2cc(F)c(F)cc2Br)cc1)C(=O)O (stereo not shown) [WAY-213613]
effect on ionotropic and metabotropic glutamate receptors: no effect
